Assay results as given in PMC8876231, “Analogues of Natural Chalcones as Efficient Inhibitors of AKR1C3” (Metabolites, 2022).
“And” between values parts separate entries of the source, which are not always exact repeats. Equal values may be shown once.

Columns and labels:
Type in all cases: biochemical
AKR1C3 = molecular target: T1, AKR1C3 (Homo sapiens, UniProt P42330); assay: AKR1C3 enzymatic inhibition assay (∆4-androstene-3,17-dione to testosterone); details: for IC50: one-site ligand binding fit
T1 construct: GST (own knowledge: pGEX vectors encode N-terminal GST); made in house; host or cells: E. coli BL21 DE3 Codon Plus RP, lysate
T1 sequence (P42330 1-323): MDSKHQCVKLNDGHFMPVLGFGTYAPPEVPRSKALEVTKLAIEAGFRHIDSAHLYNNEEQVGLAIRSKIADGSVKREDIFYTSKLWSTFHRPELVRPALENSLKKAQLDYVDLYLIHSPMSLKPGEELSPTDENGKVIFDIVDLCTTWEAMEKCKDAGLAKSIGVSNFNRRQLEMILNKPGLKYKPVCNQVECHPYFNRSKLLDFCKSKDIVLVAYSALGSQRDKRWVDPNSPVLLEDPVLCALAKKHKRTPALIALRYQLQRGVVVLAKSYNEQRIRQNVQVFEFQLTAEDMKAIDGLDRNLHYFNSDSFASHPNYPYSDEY
From the text: (§1) For enzymatic assays and inhibitor testing, all enzymes were cloned into bacterial or mammalian expression vectors. AKR1C3 and the human hydroxysteroid dehydrogenases HSD17B1, HSD17B2, HSD17B4 (SDR domain), HSD17B7, and HSD17B10 were cloned into a pGEX vector as described in [71, 72]. The coding sequences for AKR1C1, AKR1C2, and AKR1C4 were cloned by Gateway technology into the pcDNA3-N-MycDest vector according to the manufacturer’s instructions (Life Technologies, Carlsbad, CA, USA). The p11 plasmid coding for HSD17B14 (S205 variant) was a gift from Udo Opperman SGC Oxford, UK. For assays with HSD17B3, HEK293 cells stably expressing HSD17B3 were used. Enzymes were expressed in E. coli BL21 DE3 or E. coli BL21 DE3 Codon Plus RP (Stratagene, San Diego, CA, USA) or in HEK293 cells as described in [71, 72, 73]. Bacterial and cell pellets were stored at −20 °C and −80 °C, respectively, until use.
(§2) Inhibition assays were carried out as described in [71, 74]. […] For a detailed assay setup, see Supplementary Table S6. The incubation at 37 °C was stopped with 0.21 M ascorbic acid in methanol:acetic acid 99:1 (v:v) after the time needed to convert approximately 30% of the substrate in a control assay with 1% DMSO, without inhibitor candidate. Substrates and products were extracted from the reaction mixture by solid-phase extraction using C18 cartridges (Phenomenex, Aschaffenburg, Germany) and separated by RP–HPLC in a Beckman–Coulter HPLC Gold system, using the Luna 5 µm C18(2), 125 × 4.0 mm column (Phenomenex). The mobile phases used were H2O:ACN (57:43 (v:v); for assays of estrone (E1) to oestradiol (E2), E2 to E1, and ∆4-androstene-3,17-dione to testosterone conversion), H2O:ACN (49:51 (v:v); for assays of progesterone to 20α-hydroxyprogesterone conversion), and H2O:MeOH (35:65 (v:v) for assays of dihydrotestosterone (DHT) to 3α-androstanediol conversion) at a flow rate of 1 mL/min. Radioactivity was detected by online scintillation counting by using a radioactivity monitor (LB506D, Berthold Technologies, Bad Wildbad, Germany). Conversion of substrates to products was determined by integration of the peak area of the substrate and product peaks in percent. For calculation of inhibition, the conversion of control assay (assay without inhibitor) was set to 0% inhibition. All assays were run in triplicates, and mean values ± SD are reported.
For the determination of IC50 values, percent inhibition values were fitted using the Enzyme Kinetics module of SigmaPlot 13.0 and the one-site ligand-binding model according to the formula f = Bmax * abs(x)/(Kd + abs(x)).
(§3) Table S6: Activity assay setup […]
(§4) E1: estrone; E2: 17β-estradiol, A: Δ4-androstene-3,17-dione; T: testosterone, P: progesterone, 20αOHP: 20α-hydroxyprogesterone, DHT: dihydrotestosterone, 3α-Adiol: 3α-androstanediol, NaPi: 100 mM Na-phosphate buffer; PI: C0mplete protease inhibitor (Roche);. E.coli - Expression in E.coli BL21 DE3 Codon Plus RP except E.coli BL21 DE3 […]
(§5) application to antiparasitic and natural product synthesis. Eur J Org Chem […]
(§6) Synthesis of Xanthohumol analogues and discovery of potent thioredoxin reductase inhibitor as potential anticancer agent. J Med Chem 2015, 58,

AKR1C1 = molecular target: T2, AKR1C1 (Homo sapiens, UniProt Q04828); assay: AKR1C1 inhibition assay (progesterone to 20α-hydroxyprogesterone); details: 10 µM compound; mean ± SD
T2 construct: Myc (N); expressed in transfected cells; host or cells: HEK293
T2 sequence (Q04828 1-323): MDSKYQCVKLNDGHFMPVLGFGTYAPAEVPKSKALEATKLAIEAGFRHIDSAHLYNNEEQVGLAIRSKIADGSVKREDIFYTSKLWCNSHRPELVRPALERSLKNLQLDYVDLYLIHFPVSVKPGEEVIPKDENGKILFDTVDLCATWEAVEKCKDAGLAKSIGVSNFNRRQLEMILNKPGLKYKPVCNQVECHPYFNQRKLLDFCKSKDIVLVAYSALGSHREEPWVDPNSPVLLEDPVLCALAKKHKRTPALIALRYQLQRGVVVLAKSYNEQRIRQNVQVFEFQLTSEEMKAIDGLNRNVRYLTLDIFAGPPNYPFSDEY
From the text: as §1, §2, §3, §4, §5, §6

HSD17B2 = molecular target: T3, HSD17B2 (Homo sapiens, UniProt P37059); assay: HSD17B2 inhibition assay (oestradiol to estrone); details: 10 µM compound; mean ± SD
T3 construct: GST (own knowledge: pGEX vectors encode N-terminal GST); made in house; host or cells: E. coli BL21 DE3 Codon Plus RP
T3 sequence (P37059 1-387): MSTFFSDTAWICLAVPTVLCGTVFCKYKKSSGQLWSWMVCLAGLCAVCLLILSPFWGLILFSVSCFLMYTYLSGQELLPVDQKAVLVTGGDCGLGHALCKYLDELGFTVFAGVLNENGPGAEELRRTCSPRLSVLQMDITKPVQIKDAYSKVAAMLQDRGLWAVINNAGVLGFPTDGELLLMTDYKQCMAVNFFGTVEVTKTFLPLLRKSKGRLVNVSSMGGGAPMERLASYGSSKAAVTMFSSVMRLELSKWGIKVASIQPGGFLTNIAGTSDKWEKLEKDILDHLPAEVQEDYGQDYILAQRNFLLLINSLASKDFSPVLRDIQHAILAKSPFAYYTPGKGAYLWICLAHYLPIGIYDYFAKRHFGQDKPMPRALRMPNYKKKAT
From the text: as §1, §2, §3, §4, §5, §6

[1] = 10 µM compound, ∆4-androstene-3,17-dione reduction, triplicates, mean ± SD, 10 µM
[2] = ∆4-androstene-3,17-dione reduction, mean ± SD
[3] = 10 µM compound, ∆4-androstene-3,17-dione reduction, triplicates, mean ± SD

| SMILES | AKR1C3 Inhibition at 10 µM [%] (AKR1C3; [1]) | IC50 (AKR1C3; [2]) [µM] | Inhibition of AKR1C1 at 10 µM in % (AKR1C1) | Inhibition of HSD17B2 at 10 µM in % (HSD17B2) [%] | inhibition at 10 µM (AKR1C3; [3]) [%] | Fold more active than natural chalcone 18 (AKR1C3) (AKR1C3; compared with chalcone 18) [fold] | inhibition at 10 µM (AKR1C1) [%] | inhibition at 10 µM (HSD17B2) [%] | AKR1C3 Inhibition at 10 µM [%] (AKR1C3; [3]) |
| --- | --- | --- | --- | --- | --- | --- | --- | --- | --- |
| COc1ccc(/C=C/C(=O)c2c(O)cc(O)cc2OC)cc1 [Compound 18] | 47.3 ± 6.4% | 11.9 ± 2.03 | 96.5% | 10.4 ± 1.6 | – | – | – | – | – |
| O=C(/C=C/c1ccc(Cl)cc1Cl)c1c(O)cc(O)cc1O [Compound 23, 2,4-dichloro-2′,4′,6′-trihydroxychalcone] | – | 1.08 ± 0.27 | – | – | 90.9 ± 4.6 | 10 | 97 ± 0.5 | 88.8 | – |
| COc1cc(O)cc(O)c1C(=O)/C=C/c1ccc(Cl)cc1Cl [Compound 25] | – | – | 87.9% | 12.7 ± 2.3 | – | – | – | – | 33.3 ± 6.0 |

Continued, in another order:

| AKR1C3 Inhibition at 10 µM [%] (AKR1C3; [1]) | IC50 (AKR1C3; [2]) [µM] | Inhibition of AKR1C1 at 10 µM in % (AKR1C1) | Inhibition of HSD17B2 at 10 µM in % (HSD17B2) [%] | inhibition at 10 µM (AKR1C3; [3]) [%] | Fold more active than natural chalcone 18 (AKR1C3) (AKR1C3; compared with chalcone 18) [fold] | inhibition at 10 µM (AKR1C1) [%] | inhibition at 10 µM (HSD17B2) [%] | SMILES | AKR1C3 Inhibition at 10 µM [%] (AKR1C3; [3]) |
| --- | --- | --- | --- | --- | --- | --- | --- | --- | --- |
| > 75% and 87.9 ± 4.9% | 5.18 ± 1.64 | 90.2 ± 0.8% and > 75% | 44.2 ± 4.7 | – | – | – | – | Cc1ccc(/C=C/C(=O)c2c(O)cc(O)cc2O)cc1 [Compound 21] | – |
| > 75% and 78.1 ± 2.7% | 2.36 ± 0.54 | > 75% | 29.6 ± 3.7 | – | – | – | – | COc1ccc(/C=C/C(=O)c2c(O)cc(O)cc2O)cc1 [Compound 19] | – |
| > 75% and 89.2 ± 6.3% | 1.94 ± 0.32 | 86.9 ± 1.1% and > 75% | 61.0 ± 0.9 | – | – | – | – | Cc1cccc(/C=C/C(=O)c2c(O)cc(O)cc2O)c1 [Compound 20] | – |
